The values that follow come from paper PMC6753210, “^18F-Labeled Cyclized α-Melanocyte-Stimulating Hormone Derivatives for Imaging Human Melanoma Xenograft with Positron Emission Tomography” (Scientific Reports, 2019).

Each structure is given as a SMILES string.

Data set [1] deals with T1, MC1R (Mus musculus, UniProt Q01727).
T1 construct: endogenous in cells; host or cells: B16-F10 mouse melanoma cells
The data set is described as follows: In vitro competition binding assay with [^125I]NDP-αMSH on B16-F10 cells. The settings on record: 0.1 nM [^125I]NDP-αMSH, 25 °C, 1 h, n = 3. The procedure:
Receptor binding affinity of CCZ01096 was assessed using previously published procedures. Briefly, approximately 500,000 B16-F10 cells/well were seeded onto 24 well poly-D-lysine plates overnight. The cells were washed with PBS and the growth media was replaced by the reaction buffer described above. Increasing concentrations of non-radioactive CCZ01096 (0.5 pM to 5 μM) along with 0.1 nM of [^125I]NDP-αMSH were also added. The reaction mixture was incubated at 25 °C with moderate agitation for 1 h. Cells were washed with ice-cold PBS, harvested, and measured for radioactivity on a WIZARD 2480 gamma counter.

Data set [2] has as its system SK-MEL-1 human melanoma xenografts. The data set is described as follows: Biodistribution in NSG mice bearing human SK-MEL-1 melanoma xenografts. As to conditions: 1 h p.i. Type of data set: in vivo, mouse. The procedure:
(§1) All animal experiments were conducted in according to the guidelines established by Canadian Council on Animal Care and approved by Animal Ethics Committee of the University of British Columbia. Male C57BL/6 J and immunodeficient NSG mice were obtained from an in-house breeding colony at the BC Cancer Research Centre. For tumor implantation, mice were anesthetized by inhalation with 2% isoflurane, 1 × 10^6 B16-F10 and 5 × 10^6 SK-MEL-1 cells were inoculated subcutaneously on the right dorsal flank of C57BL/6J and NSG mice, respectively. Mice were used for imaging or biodistribution studies when the tumors reached 6–8 mm in diameter.
(§2) μPET/μCT imaging and biodistribution experiments were performed on a μPET/μCT scanner (Inveon, Siemens) using previously published procedures. Briefly, tumor-bearing mice were injected with approximately 3.0–5.0 MBq (for imaging) or <1.5 MBq (for biodistribution) of radiolabeled peptides via tail vein under sedation (2% isoflurane inhalation). For [^18F]FDG imaging and biodistribution, mice underwent fasting overnight prior to the experiments. Imaging studies were performed in duplicate or triplicate. […] After injection, mice were allowed to recover and roam freely in their cages. At 1 or 2 h p.i., mice were anesthetized again and positioned in the scanner. A baseline CT scan was obtained for localization and attenuation correction, followed by a 10–15 min static μPET scan. For biodistribution studies, mice were euthanized by CO2 inhalation, blood was withdrawn promptly, and the tissues of interest were harvested, rinsed, and blotted dry. All tissues were weighed and the radioactivity of the collected samples was measured using a WIZARD 2480 gamma counter.
Background: In xenograft studies the graft and the host belong to different species.

Test in data set [3]: as above
Type of data set: in vivo, mouse. As to conditions: male, NSG, mouse, SK-MEL-1 tumor, iv, total radioactivity, 1 h p.i., n = 4. The method, then: as §1, §2

Where [4] appears, read: NSG mice, SK-MEL-1 xenograft, unblocked, n = 5 ([^18F]FDG n = 4).

T1 sequence (Q01727 whole entry): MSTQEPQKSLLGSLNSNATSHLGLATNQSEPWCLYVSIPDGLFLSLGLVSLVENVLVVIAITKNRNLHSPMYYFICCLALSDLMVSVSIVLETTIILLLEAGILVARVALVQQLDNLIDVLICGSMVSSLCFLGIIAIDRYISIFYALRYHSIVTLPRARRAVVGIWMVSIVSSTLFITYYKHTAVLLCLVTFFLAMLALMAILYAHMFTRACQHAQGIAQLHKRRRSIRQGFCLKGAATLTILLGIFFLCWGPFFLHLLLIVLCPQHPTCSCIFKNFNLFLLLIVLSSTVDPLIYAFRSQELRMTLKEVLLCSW

On to `CCCC[C@H](NC(=O)CN1CCC(NC(=O)C(CCCCNC(=O)Cn2cc(C[N+](C)(C)C[B-](F)(F)F)nn2)NC(=O)Cn2cc(C[N+](C)(C)C[B-](F)(F)F)nn2)CC1)C(=O)N[C@H]1CC(=O)NCCCC[C@@H](C(N)=O)NC(=O)[C@H](Cc2c[nH]c3ccccc23)NC(=O)[C@H](CCCNC(=N)N)NC(=O)[C@@H](Cc2ccccc2)NC(=O)[C@H](Cc2c[nH]cn2)NC1=O` (stereo partly drawn) [CCZ01096], for which, in data set [1], affinity was put at a Ki of 0.51 ± 0.08 nM.

For the compound `OC[C@H]1OC(O)[C@H]([18F])[C@@H](O)[C@@H]1O` (stereo partly drawn) [[^18F]FDG, 2-[^18F]fluorodeoxyglucose], in data set [2] (setting [4]), the Adrenal glands uptake came to 2.05±0.28 %ID/g, the Blood uptake is given as 0.95±0.27 %ID/g, the Bone uptake is 0.86 ± 0.35 %ID/g and the Brain uptake stood at 9.54 ± 1.69 %ID/g. In data set [2] (setting [4]), this compound yielded a Fat uptake of 0.86±0.21 %ID/g, a Heart uptake of 8.80 ± 4.42 %ID/g, an Intestines uptake of 3.95 ± 0.16 %ID/g and a Kidneys uptake of 3.01±0.28 %ID/g. In data set [2] (setting [4]), this compound showed a Liver uptake of 1.48±0.14 %ID/g, a Lungs uptake of 3.42±0.40 %ID/g, a Muscle uptake of 1.75 ± 0.54 %ID/g and a Pancreas uptake of 1.41±0.20 %ID/g. For the same compound, in data set [2] (setting [4]), the Seminal glands uptake came to 4.63 ± 0.57 %ID/g, the Spleen uptake came out at 3.59±0.68 %ID/g, the Stomach uptake worked out at 1.00±0.11 %ID/g and the Testes uptake is listed as 1.15±1.03 %ID/g. For the same compound, in data set [2] (setting [4]), the Thyroid uptake stood at 2.72±0.13 %ID/g, the Tumor/Blood ratio is given as 7.64±2.06, the Tumor/Bone ratio is 8.83±2.62 and the Tumor/Kidneys ratio stood at 2.30±0.04. In addition, the Tumor/Muscle ratio in data set [2] (setting [4]) came out at 4.22±1.30. This compound registered an SK-MEL-1 tumor uptake in data set [2] (NSG mice, SK-MEL-1 xenograft, tail vein, unblocked, gamma counter, n = 5 ([^18F]FDG n = 4)) of 6.91 ± 0.66 %ID/g.

As for `CCCC[C@H](NC(=O)CN1CCC(NC(=O)CN2CCN(CC(=O)O)CCN(CC(=O)O)CCN(CC(=O)O)CC2)CC1)C(=O)N[C@H]1CC(=O)NCCCC[C@@H](C(N)=O)NC(=O)[C@H](Cc2c[nH]c3ccccc23)NC(=O)[C@H](CCCNC(=N)N)NC(=O)[C@@H](Cc2ccccc2)NC(=O)[C@H](Cc2c[nH]cn2)NC1=O` [[^68Ga]Ga-CCZ01048, metal not drawn], the tissue uptake (usually the percentage of the injected dose found per gram of tissue) at 1 h in data set [3] (5.9 pmol, without co-injection, total injected peptide mass 5.9 ± 0.90 pmol) amounted to 6.15 ± 0.22 %ID/g; in data set [3] (co-injection of 20 pmol ^natGa-CCZ01048, total peptide mass 27.5 ± 0.6 pmol), 2.66 ± 0.22 %ID/g; in data set [3] (co-injection of 50 pmol ^natGa-CCZ01048, total peptide mass 57.3 ± 1.0 pmol) it was 1.31 ± 0.13 %ID/g; in data set [3] (co-injection of 100 pmol ^natGa-CCZ01048, total peptide mass 109 ± 1.0 pmol), 1.04 ± 0.17 %ID/g. Also, the entries for the “Reduction of tumor uptake” value in data set [2] (co-injection of 20 pmol ^natGa-CCZ01048 vs none), in data set [2] (co-injection of 50 pmol ^natGa-CCZ01048 vs none) and in data set [2] (co-injection of 100 pmol ^natGa-CCZ01048 vs none) were 57%, 79% and 83%, respectively.
